The results in this text go back to ChEMBL document CHEMBL5030547, “Synthesis and biological studies of new piperidino-1,2,3-triazole hybrids with 3-aryl isoxazole side chains” (Bioorg Med Chem Lett, 2021).

One assay concerns Huh-7. As to the kind of experiment: Cytotoxicity against human Huh-7 cells assessed as reduction in cell viability after 48 hrs. The note with it: Huh-7, 48 h. The assay is classed as functional, cell-based.
A further assay deals with Caco-2. As to the kind of experiment: Cytotoxicity against human Caco-2 cells assessed as reduction in cell viability after 48 hrs. The following applies: Caco-2, 48 h. The assay is classed as functional, cell-based.
The test system of a further assay is MDA-MB-231. As to the kind of experiment: Cytotoxicity against human MDA-MB-231 cells assessed as reduction in cell viability after 48 hrs. The class given is functional, cell-based. The note with it: MDA-MB-231, 48 h.
For another assay, the system named is MDA-MB-468. Description: Cytotoxicity against human MDA-MB-468 cells assessed as reduction in cell viability after 48 hrs. The class given is functional, cell-based. The note with it: MDA-MB-468, 48 h.
The next assay concerns HCT-116. Description: Cytotoxicity against human HCT-116 cells assessed as reduction in cell viability after 48 hrs. The class given is functional, cell-based. The following applies: HCT-116, 48 h.
The subject of a further assay is PC-3. Description: Cytotoxicity against human PC-3 cells assessed as reduction in cell viability after 48 hrs. The class given is functional, cell-based. The note with it: PC-3, 48 h.
Assay [1] relates to MCF7. As to the kind of experiment: Cytotoxicity against human MCF7 cells assessed as reduction in cell viability after 48 hrs. The assay is classed as functional, cell-based. The note with it: MCF7, 48 h.
The subject of the next assay is Fibroblast. As to the kind of experiment: Cytotoxicity against human skin fibroblast cells assessed as reduction in cell viability after 48 hrs. The class given is cell-based.
Assay [2] deals with MCF7. Description: Inhibition of Bcl-XL- PUMA protein-protein interaction in human MCF7 cells at 20 uM incubated for overnight by BRET assay relative to control. The class given is cell-based.
Assay [3] can be described thus: Inhibition of Bcl-XL- PUMA protein-protein interaction in human MCF7 cells incubated for overnight by BRET assay. The class given is cell-based.

As to `COc1ccc(-c2cc(COC(Cc3cn(C4CCN(Cc5ccc([N+](=O)[O-])cc5)CC4)nn3)c3ccc(Br)cc3)on2)cc1` (centres undefined), the IC50 with Huh-7 (read-out: IC50) was 2 µM; in the assay with Caco-2, 3 µM; in the assay with MDA-MB-231, more than 25 µM; in the assay with MDA-MB-468, 9 µM; in the assay with HCT-116 it was more than 25 µM; in the assay with PC-3 it was 3 µM. For the same molecule, the 50% inhibitory concentration (IC50) with MCF7 [1] was 4 µM; with Fibroblast, more than 25 µM.
As to `O=[N+]([O-])c1ccc(CN2CCC(n3cc(CC(OCc4cc(-c5cccc(Br)c5)no4)c4ccc(Br)cc4)nn3)CC2)cc1` (centres undefined), the IC50 is 3 µM in the assay on Huh-7 (read-out: IC50); 5 µM in the assay on Caco-2; more than 25 µM in the assay with MDA-MB-231; more than 25 µM in the assay with MDA-MB-468; more than 25 µM with HCT-116; more than 25 µM with PC-3. In addition, the figures for the IC50 in the assay with MCF7 [1] and in the assay with Fibroblast were 6 µM and more than 25 µM, respectively.
Take `N#Cc1cccc(-c2cc(COC(Cc3cn(C4CCN(Cc5ccc([N+](=O)[O-])cc5)CC4)nn3)c3ccc(Br)cc3)on2)c1` (centres undefined): the IC50 in the assay with Huh-7 (read-out: IC50) is 3 µM; in the assay with Caco-2, 3 µM; with MDA-MB-231, more than 25 µM; in the assay on MDA-MB-468, more than 25 µM; in the assay on HCT-116 it was more than 25 µM; in the assay on PC-3, more than 25 µM. In addition, the IC50 with MCF7 [1] is 2 µM; in the assay on Fibroblast, more than 25 µM.
`O=[N+]([O-])c1ccc(CN2CCC(n3cc(CC(OCc4cc(-c5ccccc5F)no4)c4ccc(Br)cc4)nn3)CC2)cc1` (centres undefined): the IC50 was determined as 2 µM in the assay on Huh-7 (read-out: IC50); 4 µM with Caco-2; 4 µM in the assay with MDA-MB-231; 4 µM in the assay with MDA-MB-468; 9 µM in the assay with HCT-116; 6 µM with PC-3. For the same molecule, the IC50 with MCF7 [1] is 8 µM; in the assay with Fibroblast, more than 25 µM; in assay [3] it was 3.8 µM. Moreover, the inhibition with MCF7 [2] came to 10%.
On to `N#Cc1ccc(-c2cc(COC(Cc3cn(C4CCN(Cc5ccc([N+](=O)[O-])cc5)CC4)nn3)c3ccc(Br)cc3)on2)cc1` (centres undefined), for which the IC50 was 5 µM in the assay with Huh-7 (read-out: IC50); 2 µM in the assay on Caco-2; more than 25 µM in the assay on MDA-MB-231; 5 µM in the assay on MDA-MB-468; more than 25 µM with HCT-116; 2 µM in the assay on PC-3. In addition, the IC50 in the assay on MCF7 [1] was 3 µM; in the assay with Fibroblast, more than 25 µM.
For the molecule `O=[N+]([O-])c1ccc(CN2CCC(n3cc(CC(OCc4cc(-c5ccc(Br)cc5)no4)c4ccc(Br)cc4)nn3)CC2)cc1` (centres undefined), the IC50 is 2 µM in the assay on Huh-7 (read-out: IC50); 3 µM in the assay on Caco-2; more than 25 µM with MDA-MB-231; 5 µM in the assay with MDA-MB-468; more than 25 µM in the assay with HCT-116; more than 25 µM in the assay with PC-3. The IC50 was 4 µM in the assay with MCF7 [1] and more than 25 µM with Fibroblast.
As to `O=[N+]([O-])c1ccc(CN2CCC(n3cc(CC(OCc4cc(-c5cccc(F)c5)no4)c4ccc(Br)cc4)nn3)CC2)cc1` (centres undefined), the IC50 with Huh-7 (read-out: IC50) was found to be 3 µM; with Caco-2, 5 µM; with MDA-MB-231, 5 µM; in the assay with MDA-MB-468, 3 µM; in the assay on HCT-116 it was 6 µM; with PC-3, 9 µM. For the same molecule, the IC50 in the assay with MCF7 [1] is 8 µM; in the assay on Fibroblast, 10 µM.
As to `COc1ccccc1-c1cc(COC(Cc2cn(C3CCN(Cc4ccc([N+](=O)[O-])cc4)CC3)nn2)c2ccc(Br)cc2)on1` (centres undefined), the IC50 in the assay on Huh-7 (read-out: IC50) is 5 µM; in the assay on Caco-2 it was more than 25 µM; in the assay with MDA-MB-231, more than 25 µM; with MDA-MB-468, more than 25 µM; in the assay with HCT-116, more than 25 µM; in the assay with PC-3 it was more than 25 µM. The IC50 in the assay on MCF7 [1] is 3 µM; in the assay with Fibroblast it was more than 25 µM.
As for `O=[N+]([O-])c1ccc(CN2CCC(n3cc(CC(OCc4cc(-c5ccccc5)no4)c4ccc(Br)cc4)nn3)CC2)cc1` (centres undefined), the IC50 in the assay with Huh-7 (read-out: IC50) was 7 µM; in the assay on Caco-2 it was 7 µM; in the assay on MDA-MB-231, more than 25 µM; in the assay with MDA-MB-468, 3 µM; in the assay on HCT-116, more than 25 µM; in the assay with PC-3, more than 25 µM. In addition, the IC50 in the assay with MCF7 [1] and in the assay with Fibroblast was more than 25 µM in each case.
`COc1cccc(-c2cc(COC(Cc3cn(C4CCN(Cc5ccc([N+](=O)[O-])cc5)CC4)nn3)c3ccc(Br)cc3)on2)c1` (centres undefined): the IC50 in the assay on Huh-7 (read-out: IC50) was 5 µM; in the assay on Caco-2, 5 µM; in the assay on MDA-MB-231, more than 25 µM; with MDA-MB-468, more than 25 µM; in the assay with HCT-116, more than 25 µM; with PC-3, more than 25 µM. In addition, the IC50 in the assay with MCF7 [1] was 7 µM; with Fibroblast it was more than 25 µM.
With `COc1cccc2c1C(=O)c1c(O)c3c(c(O)c1C2=O)C[C@@](O)(C(=O)CO)C[C@@H]3O[C@H]1C[C@H](N)[C@H](O)[C@H](C)O1` [DOXORUBICIN], the IC50 amounted to 0.02 µM with Huh-7 (read-out: IC50); 0.04 µM in the assay on MDA-MB-231; 0.06 µM in the assay with MDA-MB-468; 0.08 µM in the assay on HCT-116; 0.1 µM in the assay with MCF7 [1]; 0.02 µM with Fibroblast.
Turning to `O=[N+]([O-])c1ccc(CN2CCC(n3cc(CC(OCc4cc(-c5ccc(F)cc5)no4)c4ccc(Br)cc4)nn3)CC2)cc1` (centres undefined), the IC50 in the assay with Huh-7 (read-out: IC50) is 2 µM; in the assay with Caco-2, 3 µM; in the assay on MDA-MB-231, more than 25 µM; in the assay on MDA-MB-468, 4 µM; in the assay on HCT-116 it was more than 25 µM; with PC-3, more than 25 µM. Moreover, the IC50 is 7 µM in the assay with MCF7 [1] and more than 25 µM in the assay with Fibroblast.
`CC[C@H](CO)Nc1nc(NCc2ccccc2)c2ncn(C(C)C)c2n1` [SELICICLIB]: the IC50 in the assay with Huh-7 turned out to be 9 µM; in the assay with MDA-MB-231 it was 17 µM; in the assay with MDA-MB-468, 18 µM; in the assay with PC-3, 11 µM; in the assay with Fibroblast, 15 µM.
As for `O=[N+]([O-])c1ccc(CN2CCC(n3cc(CC(OCc4cc(-c5ccccc5Br)no4)c4ccc(Br)cc4)nn3)CC2)cc1` (centres undefined), the half-inhibitory concentration (IC50) in the assay on Huh-7 (read-out: IC50) was more than 25 µM; with Caco-2, 3 µM; in the assay on MDA-MB-231, more than 25 µM; with MDA-MB-468 it was more than 25 µM; in the assay with HCT-116, more than 25 µM; in the assay on PC-3, more than 25 µM. In addition, the half-maximal inhibitory concentration (IC50) in the assay with MCF7 [1] was 6 µM; in the assay with Fibroblast, more than 25 µM.
